# Results taken from patent US20240122945A1, “USE OF NEUROACTIVE STEROIDS FOR TREATMENT OF SEXUAL DYSFUNCTION” (Sage Therapeutics, Inc., priority 2021, published 2024).
# Test system: Patients With Major Depressive Disorder
# Experiment: Phase 3 MOUNTAIN study: sexual functioning by Changes in Sexual Functioning Questionnaire-14 (CSFQ-14), post-hoc analysis
# Format: in vivo, human
# Conditions: for Odds Ratio for Sexual Dysfunction (Compound (1) relative to placebo): GEE model
# Description: Results from the multicenter, double-blind, randomized, placebo-controlled Phase 3 MOUNTAIN trial (NCT03672175) evaluating the efficacy, safety, and tolerability of 14-day treatment with 20 mg or 30 mg of Compound (1) compared with placebo (PBO) have been previously presented (Clayton, A. H. Presented at SOBP 2020 Virtual Meeting).
# This analysis assessed the effect of 30 mg of Compound (1) treatment compared with PBO on sexual function, as measured by the Changes in Sexual Functioning Questionnaire-14 (CSFQ-14), in the MOUNTAIN trial.
# Adult outpatients (18-65 years; n=581) with MDD (HAMD-17 total score≥22 and MADRS total score≥32) were randomized 1:1:1 to Compound (1) 20 mg (data not shown), Compound (1) 30 mg, or PBO, once-nightly for 2 weeks, with follow-up through Day 42 (see FIG. 1 for Study Design). Standard of care antidepressants that had been taken at the same dose for ≥60 days prior to Day 1 of the trial were permitted. Exclusion criteria included attempted suicide associated with the current depressive episode; treatment-resistant depression, and medical history of bipolar disorder, schizophrenia, and/or schizoaffective disorder.
# Exploratory, post-hoc analyses included evaluation of sexual functioning using the 14-item; self-report CSFQ-14 at baseline, Day 15, 28, and 42.
# Male and female sexual functioning was evaluated as an exploratory endpoint with the validated, 14-item, patient-reported CSFQ-14 scores at baseline, Day 15, Day 28, and Day 42. CSFQ-14 also has 5 sub-scales that measure pleasure, desire/frequency, desire/interest, arousal/excitement, and orgasm/completion, which were also evaluated. Sexual dysfunction was defined as a CSFQ-14TS of ≤41 for females and ≤47 for males. Mixed model for repeated measure and generalized estimating equation were used for analysis on patients with a baseline HAMD-17 total score≥24 (n=323).
# The model used was a generalized estimating equation (GEE) for binary response model, with factors for treatment (Compound (1) 30 mg or placebo), baseline CSFQ-14 total score, antidepressant use at baseline (Yes or No), assessment time point, and time point-by-treatment interaction with exchangeable covariance structure.
# Odds ratio is the estimate of the odds of having CSFQ sexual dysfunction for subjects treated with Compound (1) relative to that for subjects treated with placebo.
compound,measurement,setting,value
"C[C@@]1(O)CC[C@H]2[C@H](CC[C@@H]3[C@@H]2CC[C@]2(C)[C@@H](C(=O)Cn4cc(C#N)cn4)CC[C@@H]32)C1 [Compound (1), 1-(2-((3R,5R,8R,9R,10S,13S,14S,17S)-3-hydroxy-3,13-dimethylhexadecahydro-1H-cyclopenta[a]phenanthren-17-yl)-2-oxoethyl)-1H-pyrazole-4-carbonitrile]",difference vs PBO in percentage of male patients with sexual dysfunction across individual CSFQ-14 subscales,"30 mg, Days 15, 28, 42, exception: arousal/excitement at Day 42 (FIG. 5)",no significant differences
same,difference vs PBO in percentage of female patients with sexual dysfunction across individual CSFQ-14 subscales,"30 mg, Days 15, 28, 42, exception: desire/frequency at Day 15 and orgasm/completion at Day 28 (FIG. 4)",no significant differences
same,difference vs PBO in percentage of patients with sexual dysfunction in the individual CSFQ-14 subscales,"30 mg, all patients",no significant differences
same,treatment-emergent sexual dysfunction,"30 mg, overall conclusion",not associated with treatment-emergent sexual dysfunction
same,impairment of sexual function compared to placebo during the trial,"30 mg, through Day 42",No impairment of sexual function
same,Odds Ratio for Sexual Dysfunction (Compound (1) relative to placebo),"Day 15, Men, 30 mg, CSFQ total score<=47 = sexual dysfunction",0.72
same,Odds Ratio for Sexual Dysfunction (Compound (1) relative to placebo),"Day 15, Women, 30 mg, CSFQ total score<=41 = sexual dysfunction",1.00
same,Odds Ratio for Sexual Dysfunction (Compound (1) relative to placebo),"Day 28, Men, 30 mg, CSFQ total score<=47 = sexual dysfunction",1.07
same,Odds Ratio for Sexual Dysfunction (Compound (1) relative to placebo),"Day 28, Women, 30 mg, CSFQ total score<=41 = sexual dysfunction",1.01
same,percentage of all patients with sexual dysfunction as assessed by CSFQ-14TS thresholds,"Day 42 (181/272), from 82.4% (266/323) at baseline, Compound (1) 30 mg- and PBO-treated patients together",66.5%
same,Odds Ratio for Sexual Dysfunction (Compound (1) relative to placebo),"Day 42, Men, 30 mg, CSFQ total score<=47 = sexual dysfunction",0.88
same,Odds Ratio for Sexual Dysfunction (Compound (1) relative to placebo),"Day 42, Women, 30 mg, CSFQ total score<=41 = sexual dysfunction",0.91
